In patent publication EP4711368A1 (priority 2023, dated 2024):
Read-outs that look alike come from different tables or passages of the source.

Experiments:
[1] = tested on: SD rats; experiment: animal or person; assay type: in vivo; conditions: iv; for minimal effective dose: Rattus norvegicus; for Onset time / Righting feflex duration / Sedation Duration: rat, in vivo
[2] = tested on: SD rats; conditions: SD, rat, in vivo; for MLD: iv; on Onset time: test concentration or dose not given here; on Righting feflex duration: test concentration or dose not given here; on Sedation Duration: test concentration or dose not given here
[3] = read-out: Minimal effective anesthetic dose
[4] = read-out: Minimal effective analgesic dose

Compound	minimal effective dose [1, 3]	Onset time [1]	Righting feflex duration [1]	Sedation Duration [1]	TI [2]	MLD [2]	minimal effective dose [1, 4]
CC(C)C(=O)OCN1N=C(c2ccccn2)c2cc(Br)ccc2N(C)C1=O [Compound 287]	10 mg/kg	0.32 to 0.43 min	0.63 to 7.53 min	44.20 to 46.25 min	3	30 mg/kg	–
CN1C(=O)N(COC(=O)CCl)N=C(c2ccccn2)c2cc(Br)ccc21 [Compound 288]	15 mg/kg	0.80 min	2.45 min	33.18 min	1.3	20 mg/kg	–
CC(C)OC(=O)OCN1N=C(c2ccccn2)c2cc(Br)ccc2N(C)C1=O [Compound 289]	5 mg/kg	0.15 to 0.68 min	0.53 to 32.23 min	20.27 to 311.87 min	8.3	41.7 mg/kg	20 mg/kg
CN1C(=O)N(COC(=O)CCCl)N=C(c2ccccn2)c2cc(Br)ccc21 [Compound 290]	15 mg/kg	0.45 min	6.63 min	18.08 min	1.3	20 mg/kg	15 mg/kg
CN(C)C(=O)OCN1N=C(c2ccccn2)c2cc(Br)ccc2N(C)C1=O [Compound 291]	15 mg/kg	0.65 to 0.92 min	2.03 to 5.98 min	–	2	30 mg/kg	15 mg/kg
CCN(C)C(=O)OCN1N=C(c2ccccn2)c2cc(Br)ccc2N(C)C1=O [Compound 292]	20 mg/kg	0.40 min	2.75 min	46.82 min	1.5	30 mg/kg	20 mg/kg
CC(C)N(C)C(=O)OCN1N=C(c2ccccn2)c2cc(Br)ccc2N(C)C1=O [Compound 293]	15 mg/kg	0.95 min	4.20 min	82.85 min	1.3	20 mg/kg	15 mg/kg
CON(C)C(=O)OCN1N=C(c2ccccn2)c2cc(Br)ccc2N(C)C1=O [Compound 294]	15 mg/kg	0.52 to 0.55 min	3.35 to 6.47 min	28.68 to 40.58 min	>1.3	>20 mg/kg	–
CN1C(=O)N(COC(=O)N2CCCC2)N=C(c2ccccn2)c2cc(Br)ccc21 [Compound 295]	20 mg/kg	0.20 to 0.52 min	3.70 to 13.25 min	34.23 to 172.50 min	2	40 mg/kg	–
CC(C)C(=O)OCCN1N=C(c2ccccn2)c2cc(Br)ccc2N(C)C1=O [Compound 298]	10 mg/kg	0.22 to 0.38 min	6.73 to 8.97 min	17.03 to 30.07 min	2	20 mg/kg	–
CN1C(=O)N(CCOC(=O)CCl)N=C(c2ccccn2)c2cc(Br)ccc21 [Compound 300]	40 mg/kg	0.25 min	4.67 min	76.20 min	>1	>40 mg/kg	–
CC(F)C(=O)OCCN1N=C(c2ccccn2)c2cc(Br)ccc2N(C)C1=O (centres unmarked) [Compound 303]	20 mg/kg	0.43 min	14.30 min	74.88 min	>1	>20 mg/kg	–
CN(C)C(=O)OCCN1N=C(c2ccccn2)c2cc(Br)ccc2N(C)C1=O [Compound 304]	5 mg/kg	0.18 to 0.57 min	1.92 to 5.35 min	10.57 to 18.57 min	4	20 mg/kg	–
CCOC(=O)CN1N=C(c2ccccn2)c2cc(Br)ccc2-n2c(C)cnc21 [Compound 307]	8.75 mg/kg	0.27 to 0.73 min	0.90 to 4.27 min	20.87 to 32.75 min	>1.7	>15.15 mg/kg	–
CC[C@@H](C)OC(=O)CN1N=C(c2ccccn2)c2cc(Br)ccc2-n2c(C)cnc21 [Compound 309]	2.5 mg/kg	0.35 to 0.55 min	2.38 to 18.82 min	27.68 to 46.83 min	6	15 mg/kg	12.5 mg/kg
C=CC(C)OC(=O)CN1N=C(c2ccccn2)c2cc(Br)ccc2-n2c(C)cnc21 (centres unmarked) [Compound 310]	10 mg/kg	0.15 to 0.52 min	2.97 to 38.32 min	138.40 to 240 min	4	40 mg/kg	20 mg/kg
Cc1cnc2n1-c1ccc(Br)cc1C(c1ccccn1)=NN2CC(=O)OC1COC1 [Compound 311]	5 mg/kg	0.17 to 0.48 min	2.28 to 12.30 min	25.88 to 54.23 min	6	30 mg/kg	10 mg/kg
C#C[C@@H](C)OC(=O)CN1N=C(c2ccccn2)c2cc(Br)ccc2-n2c(C)cnc21 [Compound 312]	10 mg/kg	0.15 to 0.52 min	2.97 to 38.32 min	138.40 to 240 min	4	40 mg/kg	10 mg/kg
CCC(C)(C)OC(=O)CN1N=C(c2ccccn2)c2cc(Br)ccc2-n2c(C)cnc21 [Compound 313]	15 mg/kg	0.53 to 0.97 min	12.27 to 13.62 min	43.43 to 66.15 min	2	30 mg/kg	20 mg/kg
Cc1cnc2n1-c1ccc(Br)cc1C(c1ccccn1)=NN2CC(=O)OC1(C)COC1 [Compound 314]	10 mg/kg	0.15 to 0.67 min	1.27 to 1.40 min	11.02 to 18.83 min	4	40 mg/kg	–
Cc1cnc2n1-c1ccc(Br)cc1C(c1ccccn1)=NN2CCOC(=O)C(C)C [Compound 315]	3.75 mg/kg	0.38 to 0.75 min	0.58 to 2.35 min	14.12 to 24.55 min	2.7	10 mg/kg	30 mg/kg
Cc1cnc2n1-c1ccc(Br)cc1C(c1ccccn1)=NN2CCOC(=O)N(C)C [Compound 317]	5 mg/kg	0.22 to 0.38 min	4.08 to 25.97 min	18.73 to 70.28 min	4	20 mg/kg	10 mg/kg
Cc1cnc2n1-c1ccc(Br)cc1C(c1ccccn1)=NN2COC(=O)C(C)C [Compound 318]	5 mg/kg	0.52 to 0.63 min	0.58 to 10.53 min	24.95 to 35.65 min	>2	>10 mg/kg	–
Cc1cnc2n1-c1ccc(Br)cc1C(c1ccccn1)=NN2COC(=O)CCCl [Compound 319]	7.5 mg/kg	0.38 to 0.48 min	7.58 to 8.00 min	21.82 to 52.53 min	>1.3	>10 mg/kg	–
Cc1cnc2n1-c1ccc(Br)cc1C(c1ccccn1)=NN2COC(=O)N(C)C [Compound 320]	15 mg/kg	0.65 to 0.92 min	2.03 to 5.98 min	–	2	30 mg/kg	15 mg/kg
